Measured values taken from publication PMC5986790, “Rational Discovery of (+) (S) Abscisic Acid as a Potential Antifungal Agent: a Repurposing Approach” (Scientific Reports, 2018).

Columns and labels:
[1] = target: T1, yeast chorismate mutase (Saccharomyces cerevisiae, UniProt P32178); format: biochemical; design: gene ARO7; native enzyme in crude sonicated yeast cell extract, not purified; homodimer (known biology); 256 residues; conditions: 1 mM chorismic acid; yeast sonicate; Tris-HCl pH 8; 30 °C
T1 sequence (P32178 whole entry): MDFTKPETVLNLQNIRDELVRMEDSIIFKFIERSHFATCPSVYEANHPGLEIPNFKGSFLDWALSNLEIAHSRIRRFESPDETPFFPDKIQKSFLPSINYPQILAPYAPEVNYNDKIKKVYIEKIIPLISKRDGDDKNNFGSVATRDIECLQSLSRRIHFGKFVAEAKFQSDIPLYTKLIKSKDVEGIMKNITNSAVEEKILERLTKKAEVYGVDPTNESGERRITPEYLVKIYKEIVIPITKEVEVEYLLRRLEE

[2] = target: T1, yeast chorismate mutase; design: gene ARO7; conditions: 1 mM chorismic acid; yeast sonicate; Tris-HCl pH 8; 30 °C; tyrosine 10-500 µM; allosteric
[3] = target: T1, yeast chorismate mutase; assay: HPLC of chorismic acid and phenylpyruvate (prephenate converted by acid); format: biochemical; design: gene ARO7; native enzyme in crude sonicated yeast cell extract, not purified; homodimer (known biology); 256 residues; conditions: 1 mM chorismic acid; yeast sonicate; Tris-HCl pH 8; 30 °C; ABA 10-500 µM

Structure (SMILES): C=C(O[C@@H]1C=C(C(=O)O)C=C[C@H]1O)C(=O)O [chorismic acid]
- HPLC of chorismic acid and phenylpyruvate (prephenate converted by acid) [1]: yeast chorismate mutase catalysed the conversion of externally added chorismic acid to prephenic acid

Structure (SMILES): N[C@@H](Cc1ccc(O)cc1)C(=O)O [Tyrosine]
- optimal inhibitor concentration (not an IC50) [2]: 100 µM

Structure (SMILES): CC1=CC(=O)CC(C)(C)[C@@]1(O)/C=C/C(C)=C\C(=O)O [(+)-Abscisic acid, 5-(1-hydroxy-2,6,6-trimethyl-4-oxo-2-cyclohexene-1-yl)-3-methyl-pentadienoic acid]
- inhibitory concentration (range, not an IC50) [3]: 200 to 300 µM
